{"source": "patent US9623078B2", "about": "“Method for treating cardiac infarction using HMGB1 fragment” (GENOMIX CO., LTD, priority 2012, dated 2017)", "key": {"[1]": {"test_system": "acute stage myocardial infarction mouse model", "assay": "Cardiac function by echocardiography in myocardial infarction model", "assay_type": "in vivo", "description": "(§1) Bone marrow cells were collected from the thigh bone/lower leg bone of three-week-old mice (C57BL6-CAG-GFP transgenic mice), and the bone marrow cell suspension was administered ([…]) to the tail vein of six-week-old mice (C57BL6) after irradiation (10GY) to produce bone marrow chimeric mice. Sixty days after bone marrow transplantation, left fourth interspace thoracotomy was performed under general anesthesia in the supine position, and the proximal left anterior descending coronary artery was ligated to produce an extensive myocardial infarction model (left anterior descending coronary artery/circumflex occlusion model). In making the HMGB1 protein low molecular, a fragment peptide (1-44) of the HMGB1 protein was developed in consideration of retaining the activity of recruiting bone marrow mesenchymal stem cells. At 6, 24, 48, 72, and 96 hours after infarction creation, the HMGB1 protein fragment peptide (1-44) (5 μg/300 μl), or 300 μl of PBS (negative control group) was administered five times to the tail vain. Mice were euthanized by administration of excess ketamine and xylazine, and their hearts were collected. After the tissues were embedded in OCT compound, cryosections of 5 μm thickness were prepared. […] Regarding the number of bone marrow-derived mesenchymal stem cells accumulated in the tissue, the number of cells positive for both GFP and PDGFRα present in all areas of randomly-selected 5 sections were determined and the mean value was calculated. […] Real-time PCR was performed with the Gene Amp(R) PCR System 9700 (Life Technologies Japan) using the above-mentioned cDNA as a template, and the levels of TNFα and IL-1β mRNA were determined as a ratio to the GAPDH mRNA level. Improvement in the cardiac function was evaluated by measuring the left ventricular end-diastolic diameter (LVDd: Dd), left ventricular end-systolic diameter (LVDs: Ds), and left ventricular ejection fraction (LVEF: EF) using the Vivid 7 Echocardiography System and 12-MHZ Transducer (General Electric)."}, "TNFα mRNA": {"test_system": "TNFα mRNA", "assay": "TNFα mRNA level in myocardial tissue of myocardial infarction model (real-time PCR)", "assay_type": "in vivo, mouse", "settings": "ratio to GAPDH mRNA level; N=4; negative control 11±3; P<0.05; day not stated in text (FIG. 1C: 7 and 56 days)", "description": "as §1, with “cells.” for “cells. At 6, 24, 48, 72, and 96 hours after infarction creation, the HMGB1 protein fragment peptide (1-44) (5 μg/300 μl), or 300 μl of PBS (negative control group) was administered five times to the tail vain. Mice were euthanized by administration of excess ketamine and xylazine, and their hearts were collected. After the tissues were embedded in OCT compound, cryosections of 5 μm thickness were prepared.”, “Improvement in the cardiac function was evaluated by measuring the left ventricular end-diastolic diameter (LVDd: Dd), left ventricular end-systolic diameter (LVDs: Ds), and left ventricular ejection fraction (LVEF: EF) using the Vivid 7 Echocardiography System and 12-MHZ Transducer (General Electric).” left out"}, "IL-1β mRNA": {"test_system": "IL-1β mRNA", "assay": "IL-1β mRNA level in myocardial tissue of myocardial infarction model (real-time PCR)", "assay_type": "in vivo, mouse", "settings": "ratio to GAPDH mRNA level; N=4; negative control 6±1; P<0.05; day not stated in text (FIG. 1D: 7 and 56 days)", "description": "as §1, with “cells.” for “cells. At 6, 24, 48, 72, and 96 hours after infarction creation, the HMGB1 protein fragment peptide (1-44) (5 μg/300 μl), or 300 μl of PBS (negative control group) was administered five times to the tail vain. Mice were euthanized by administration of excess ketamine and xylazine, and their hearts were collected. After the tissues were embedded in OCT compound, cryosections of 5 μm thickness were prepared.”, “Improvement in the cardiac function was evaluated by measuring the left ventricular end-diastolic diameter (LVDd: Dd), left ventricular end-systolic diameter (LVDs: Ds), and left ventricular ejection fraction (LVEF: EF) using the Vivid 7 Echocardiography System and 12-MHZ Transducer (General Electric).” left out"}, "[2]": {"test_system": "PDGFRα-positive bone marrow mesenchymal stem cells", "assay": "Recruitment of PDGFRα-positive bone marrow-derived mesenchymal stem cells to myocardium in myocardial infarction model (GFP/PDGFRα immunofluorescence)", "assay_type": "in vivo, mouse", "settings": "N=4, P<0.05", "description": "as §1, with “cells.” for “cells. At 6, 24, 48, 72, and 96 hours after infarction creation, the HMGB1 protein fragment peptide (1-44) (5 μg/300 μl), or 300 μl of PBS (negative control group) was administered five times to the tail vain. Mice were euthanized by administration of excess ketamine and xylazine, and their hearts were collected. After the tissues were embedded in OCT compound, cryosections of 5 μm thickness were prepared.”, “Improvement in the cardiac function was evaluated by measuring the left ventricular end-diastolic diameter (LVDd: Dd), left ventricular end-systolic diameter (LVDs: Ds), and left ventricular ejection fraction (LVEF: EF) using the Vivid 7 Echocardiography System and 12-MHZ Transducer (General Electric).” left out"}}, "data": [{"substance": "HMGB1 protein fragment peptide (1-44): peptide consisting of amino acids at positions 1 to 44 of an HMGB1 protein (SEQ ID NO: 3), produced by peptide synthesis (MGKGDPKKPRGKMSSYAFFVQTCREEHKKKHPDASVNFSEFSKK; Synthesized peptide from an HMGB1 protein)", "values": [{"measurement": "left ventricular end-diastolic diameter (DD)", "setting": "[1]; Day 56 after infarction, N=8, negative control (N=16) 6.3±0.2, P<0.05", "result": "5.8±0.2", "unit": "mm"}, {"measurement": "left ventricular ejection fraction (EF)", "setting": "[1]; Day 56 after infarction, N=8, negative control (N=16) 20±4, P<0.05", "result": "26±4", "unit": "%"}, {"measurement": "aggravation of left ventricular systolic function, left ventricular enlargement, and left ventricular remodeling", "setting": "[1]; myocardial infarction model, five-day administration", "result": "significantly suppressed"}, {"measurement": "TNFα mRNA level, non-infarction site", "setting": "TNFα mRNA", "result": "4±2", "unit": "GAPDH"}, {"measurement": "IL-1β mRNA level, non-infarction site", "setting": "IL-1β mRNA", "result": "2±1", "unit": "GAPDH"}, {"measurement": "number of PDGFRα-positive bone marrow-derived mesenchymal cells, non-infarction site", "setting": "[2]; day 7 post infarction creation, 5 μg/300 μl tail vein x5 (6, 24, 48, 72, 96 h), negative control 32±9", "result": "52±11", "unit": "cells/mm^2"}, {"measurement": "recruitment of PDGFRα-positive bone marrow mesenchymal stem cells in all areas (infarction, border, non-infarction sites) vs. negative control", "setting": "[2]; seven days after creating myocardial infarction", "result": "significantly recruited"}]}]}
